# Measurements from ChEMBL document CHEMBL1782014, “20(R)-ginsenoside Rh2, not 20(S), is a selective osteoclastgenesis inhibitor without any cytotoxicity” (Bioorg Med Chem Lett, 2009).
# How the values were obtained:
# [1] = tested on: Radical scavenging activity; assay: Antioxidant activity assessed as DPPH radical scavenging activity at 1.6 mM after 20 mins by UV spectrophotometry; format: functional
# [2] = Toxicity in RANKL and TNFalpha-pretreated mouse RAW264 cells assessed as inhibition of cell proliferation incubated for 3 days by WST-1 assay; details: RAW264 cells pretreated with RANKL and TNFalpha
# [3] = Inhibition of RANKL and TNF-alpha-induced osteoclastogenesis in mouse RAW264 cells incubated for 3 days by TRAP staining based method; format: functional, cell-based; details: RAW264.7, 72 h
# [4] = Toxicity in RANKL and TNFalpha-pretreated mouse RAW264 cells assessed as effect on cell proliferation upto 50 uM incubated for 3 days by WST-1 assay; details: raw264, 72 h
# [5] = Toxicity in RANKL and TNFalpha-pretreated mouse RAW264 cells assessed as inhibition of cell proliferation upto 100 uM incubated for 3 days by WST-1 assay; details: raw264, 72 h
# [6] = tested on: Radical scavenging activity; assay: Antioxidant activity assessed as DPPH radical scavenging activity at 0.2 mM after 20 mins by UV spectrophotometry; format: functional
Compound,Activity [1],IC50 at 3 days [2],IC50 [3],Activity [4],Activity [5],Activity [6]
CC(C)=CCC[C@](C)(O)[C@H]1CC[C@]2(C)[C@@H]1[C@H](O)C[C@@H]1[C@@]3(C)CC[C@H](O[C@@H]4O[C@H](CO)[C@@H](O)[C@H](O)[C@H]4O)C(C)(C)[C@@H]3CC[C@]12C [GINSENOSIDE RH2],< 10%,62 µM,32 µM,–,–,–
CC(C)=CCC[C@@](C)(O)[C@H]1CC[C@]2(C)[C@@H]1[C@H](O)C[C@@H]1[C@@]3(C)CC[C@H](O[C@@H]4O[C@H](CO)[C@@H](O)[C@H](O)[C@H]4O)C(C)(C)[C@@H]3CC[C@]12C,< 10%,–,12 µM,Non-toxic,Non-toxic,–
Cc1c(C)c2c(c(C)c1O)CC[C@@](C)(CCC[C@H](C)CCC[C@H](C)CCCC(C)C)O2,–,–,–,–,–,96%
